Reference: patent US4784992A, “Phosphorylalkanolamide derivatives of L-carnitine and pharmaceutical compositions containing same” (Sigma-Tau Industrie Farmaceutiche Riunite S.p.A., priority 1986, dated 1988)

Experiments:
[1] = tested on: erucic acid-induced myocardial steatosis; test: erucic acid-induced myocardial steatosis model in the rat (erucic acid-rich rape oil diet); assay type: in vivo, rat (male Wistar); conditions: for Cholesterol / ATP: n=6; for Cholesterol: controls 32.7 ±11.95; for ATP: controls 34.2 ±8.73
Text: (§1) A myocardial steatosis model, in which an L-carnitine positive effect was already described, was used in the rat. The steatosis was induced by adding, for five (5) consecutive days, erucic acid-rich rape oil in the rats' normal daily diet, according to the method described by Branca et al. (Internat., Vit. Nutr. Res., 47, 162-166, 1977). Trial-groups of six (6) male Wistar rats, weighing from 190 g to 220 g, were used.
These effects were statistically significant with Student's t test.

[2] = solubility and appearance of the inner salt; assay type: physicochemical
Text: A 20% aqueous solution of the calcium salt of L-carnitine phosphorylethanolamide was passed through AMBERLITE IR 120 activated with a 10% solution of hydrochloric acid. The eluate was neutralized with AMBERLITE IR 45 resin. The solution was then concentrated to dryness under vacuum. A white product crystallized which was taken up with warm ethanol.

normal mouse's behaviour = test: Irwin's test in the mouse (normal mouse's behaviour); assay type: in vivo; conditions: 1000 mg/kg e.p.; 4 M + 4 F
Method: (§2) The effects of L-carnitine phosphorylethanolamide to Irwin's test in the mouse and acute toxicity after endoperitoneal administration of the substance, always in the mouse, were also evaluated.

lipid metabolism = test: restoring to normal any imbalance in the lipid metabolism / summary of the pharmacological trials; assay type: in vivo
Text: as §1
The model of erucic acid-induced myocardial steatosis is used to compare the effect of the 14 day-administration of 250 and 125 mg/kg e.p. of L-carnitine with that of L-carnitine phosphorylethanolamide at the same doses for the same study period.
Moreover other tests were carried out using a model of olive-oil induced hyperlipemia in the rat. L-carnitine was administered at 250 and 125 mg/kg endoperitoneally for 14 days, as was L-carnitine phosphorylethanolamide at 250 and 125 mg/kg endoperitoneally for 14 days. The following parameters were evaluated:
Moreover it is efficacious in re-establishing the balance between fatty acids' oxidation and uptake, and in stimulating acetyl-CoA's oxidation in Kreb's cycle. Important to underline is that to these actions, another, of a more ubiquitary nature, must be added. […]

mouse = test: acute toxicity in the mouse (mortality curve and LD50); assay type: in vivo; conditions: 4 M + 4 F, 7 days observation
Method: as §2

[3] = as above; assay type: in vivo; conditions: in vivo, ip; mouse, e.p.; 7 days observation
Method: as §2

[4] = 250 mg/kg endoperitoneally, 5 days, statistically significant (Student's t test)
[5] = Table 1, 250 mg/kg e.p., 5 days, P < 0.001

Question: With `C[N+](C)(C)C[C@H](O)CC(=O)[O-]` [L-carnitine] as the compound, how does the “Triglycerides, change vs controls” value ([1]; Table 2, 250 mg/kg endoperitoneally for 5 days, P < 0.001) read?
Answer: -60.1%

Question: What about the “Cholesterol, change vs controls” value ([1]; Table 2, 250 mg/kg endoperitoneally for 5 days, n.s.) of the same compound?
Answer: -34.5%

Question: What about the Cholesterol ([1]; Table 2, 250 mg/kg endoperitoneally for 5 days, spread of treated group ±7.01 on next line, n.s.) of the same compound?
Answer: 24.7 mg/g of fresh tissue

Question: What about the ATP ([1]; Table 2, 250 mg/kg endoperitoneally for 5 days, spread of treated group ±20.28 on next line, P < 0.05) of the same compound?
Answer: 57.3 nM/g proteines

Question: Which “solubility in most of the common organic solvents” value ([2]; common organic solvents) does the source give for `C[N+](C)(C)CC(O)CC(=O)NCCOP(=O)([O-])O` [L-carnitine phosphorylethanolamide] here?
Answer: insoluble in most of the common organic solvents

Question: And the solubility ([2]; water and methanol at room temperature, warm ethanol)?
Answer: Soluble in water and methanol at room temperature and in warm ethanol

Question: And the hygroscopicity ([2]; white, amorphous powder, inner salt)?
Answer: hygroscopic

Question: And the Main effects observed (normal mouse's behaviour)?
Answer: apparently normal

Question: What about the “normalization of myocardial hypertriglyceridemia and hyperlipemia, induced by erucic acid treatment” value (lipid metabolism) of the same compound?
Answer: extremely active

Question: And the “re-establishing the balance between fatty acids' oxidation and uptake, and stimulating acetyl-CoA's oxidation in Kreb's cycle” value (lipid metabolism)?
Answer: efficacious

Question: What about the “N° of dead animals” value (mouse; 1000 mg/kg e.p.) of the same compound?
Answer: 0

Question: And the “N° of dead animals” value (mouse; 2000 mg/kg e.p.)?
Answer: 0

Question: And the “N° of dead animals” value (mouse; 4000 mg/kg e.p.)?
Answer: 0

Question: And the “N° of dead animals” value (mouse; 8000 mg/kg e.p.)?
Answer: 0

Question: And the LD50 at 168 h [3]?
Answer: > 8000 mg/kg

Question: What about the ATP values [1, 4] of the same compound?
Answer: brought back to normal the ATP values

Question: And the “accumulation of triglycerides in the myocardium” value [1, 4]?
Answer: reduced the accumulation of triglycerides in the myocardium

Question: And the cholesterol levels [1, 4]?
Answer: lowered the cholesterol levels

Question: What about the “ATP, change vs controls” value [1, 5] of the same compound?
Answer: +76.9%

Question: What about the “Triglycerides, change vs controls” value [1, 5] of the same compound?
Answer: -47.9%

Question: And the “Cholesterol, change vs controls” value ([1]; Table 1, 250 mg/kg e.p., 5 days, P < 0.01)?
Answer: -60.9%

Question: What about the Cholesterol ([1]; Table 1, 250 mg/kg e.p., 5 days, spread of treated group ±7.16 on next line, P < 0.01) of the same compound?
Answer: 12.8 mg/g of fresh tissue

Question: What about the ATP ([1]; Table 1, 250 mg/kg e.p., 5 days, spread of treated group ±5.78 on next line, P < 0.001) of the same compound?
Answer: 60.5 nM/g proteines
